Measured values taken from ChEMBL document CHEMBL1909046, “DrugMatrix in vitro pharmacology data”.

Tests used:
[1] = biological target: 5-hydroxytryptamine receptor 4 (Cavia porcellus, UniProt O70528); format: cell membranes, Dunkin-Hartley, Striatum, Membrane; note: in other assays of this panel Not Active means under 50% inhibition at 10 µM
Nitric oxide synthase 1 = Nitric oxide synthase 1 (Rattus norvegicus, UniProt P29476); format: tissue-based, Cerebellum; note: in other assays of this panel Not Active means under 50% inhibition at 10 µM
Chain of Nitric oxide synthase 1 (P29476 whole entry): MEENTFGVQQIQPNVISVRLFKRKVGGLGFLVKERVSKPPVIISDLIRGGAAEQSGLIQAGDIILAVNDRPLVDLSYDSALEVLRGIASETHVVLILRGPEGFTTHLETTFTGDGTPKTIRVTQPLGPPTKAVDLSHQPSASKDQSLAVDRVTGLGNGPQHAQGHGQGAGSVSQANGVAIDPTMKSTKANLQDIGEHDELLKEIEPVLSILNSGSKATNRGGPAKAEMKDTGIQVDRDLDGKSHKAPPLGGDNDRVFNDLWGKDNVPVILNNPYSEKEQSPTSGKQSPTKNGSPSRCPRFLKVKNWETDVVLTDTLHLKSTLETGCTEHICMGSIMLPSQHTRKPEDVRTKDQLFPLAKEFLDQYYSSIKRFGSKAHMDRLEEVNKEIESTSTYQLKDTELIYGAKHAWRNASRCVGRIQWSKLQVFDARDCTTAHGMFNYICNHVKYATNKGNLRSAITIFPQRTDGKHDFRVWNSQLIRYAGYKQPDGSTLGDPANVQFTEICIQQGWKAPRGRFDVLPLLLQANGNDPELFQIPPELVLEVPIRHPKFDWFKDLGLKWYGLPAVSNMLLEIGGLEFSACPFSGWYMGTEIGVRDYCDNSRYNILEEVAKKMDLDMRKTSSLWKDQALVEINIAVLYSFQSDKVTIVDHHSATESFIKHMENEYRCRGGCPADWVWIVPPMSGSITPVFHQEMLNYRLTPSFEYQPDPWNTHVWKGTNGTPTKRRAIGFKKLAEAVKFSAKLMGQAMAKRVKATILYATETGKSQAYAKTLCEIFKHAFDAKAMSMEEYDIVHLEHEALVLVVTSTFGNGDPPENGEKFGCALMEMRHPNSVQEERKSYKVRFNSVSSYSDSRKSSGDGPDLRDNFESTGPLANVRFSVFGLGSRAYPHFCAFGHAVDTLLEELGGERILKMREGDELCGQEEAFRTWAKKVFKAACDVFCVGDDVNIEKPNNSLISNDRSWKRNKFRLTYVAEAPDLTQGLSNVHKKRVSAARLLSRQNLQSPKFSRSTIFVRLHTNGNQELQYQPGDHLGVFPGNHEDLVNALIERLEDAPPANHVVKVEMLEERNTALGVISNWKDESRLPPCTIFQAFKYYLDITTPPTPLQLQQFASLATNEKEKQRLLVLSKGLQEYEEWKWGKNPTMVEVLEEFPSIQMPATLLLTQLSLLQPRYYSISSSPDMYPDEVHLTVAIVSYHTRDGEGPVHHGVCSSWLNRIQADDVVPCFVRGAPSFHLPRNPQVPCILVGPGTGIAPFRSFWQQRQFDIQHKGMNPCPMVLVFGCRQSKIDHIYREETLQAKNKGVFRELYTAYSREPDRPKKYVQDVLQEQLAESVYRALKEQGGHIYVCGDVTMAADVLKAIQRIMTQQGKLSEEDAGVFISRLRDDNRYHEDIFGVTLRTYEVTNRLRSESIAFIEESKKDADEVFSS

[2] = biological target: Protein phosphatase 3 catalytic subunit alpha (Homo sapiens, UniProt Q08209); design: species or system Escherichia coli;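 note: inhibition of calcineurin (PP2B) enzyme activity, measured with DiFMUP as the substrate; in other assays of this panel Not Active means under 50% inhibition at 10 µM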
[3] = biological target: Tyrosine-protein kinase Lck (Homo sapiens, UniProt P06239); assay: DRUGMATRIX: Protein Tyrosine Kinase, LCK enzyme inhibition (substrate: Poly(Glu:Tyr)); format: cell-based, Insect cells; settings: Not Active = under 50% inhibition at 10 µM
Chain of Tyrosine-protein kinase Lck (P06239 whole entry): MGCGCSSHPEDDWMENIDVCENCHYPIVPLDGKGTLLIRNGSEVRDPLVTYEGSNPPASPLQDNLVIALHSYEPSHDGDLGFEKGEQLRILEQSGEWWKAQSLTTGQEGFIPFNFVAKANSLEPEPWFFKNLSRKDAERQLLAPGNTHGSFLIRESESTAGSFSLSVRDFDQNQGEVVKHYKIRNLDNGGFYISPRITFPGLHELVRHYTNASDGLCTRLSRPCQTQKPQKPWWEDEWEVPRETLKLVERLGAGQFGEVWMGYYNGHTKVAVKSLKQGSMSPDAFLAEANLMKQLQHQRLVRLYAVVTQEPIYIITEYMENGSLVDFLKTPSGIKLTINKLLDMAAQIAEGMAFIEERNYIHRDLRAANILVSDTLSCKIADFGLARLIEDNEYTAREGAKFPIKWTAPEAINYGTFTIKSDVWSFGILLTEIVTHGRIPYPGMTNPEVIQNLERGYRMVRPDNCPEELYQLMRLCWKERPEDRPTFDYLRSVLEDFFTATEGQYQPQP

[4] = biological target: T1, Alpha-2C adrenergic receptor (Homo sapiens, UniProt P18825); assay: DRUGMATRIX: Adrenergic Alpha-2C radioligand binding (ligand: [3H] MK-912); format: cell membranes, Sf9, Membrane
T1 sequence (P18825 whole entry): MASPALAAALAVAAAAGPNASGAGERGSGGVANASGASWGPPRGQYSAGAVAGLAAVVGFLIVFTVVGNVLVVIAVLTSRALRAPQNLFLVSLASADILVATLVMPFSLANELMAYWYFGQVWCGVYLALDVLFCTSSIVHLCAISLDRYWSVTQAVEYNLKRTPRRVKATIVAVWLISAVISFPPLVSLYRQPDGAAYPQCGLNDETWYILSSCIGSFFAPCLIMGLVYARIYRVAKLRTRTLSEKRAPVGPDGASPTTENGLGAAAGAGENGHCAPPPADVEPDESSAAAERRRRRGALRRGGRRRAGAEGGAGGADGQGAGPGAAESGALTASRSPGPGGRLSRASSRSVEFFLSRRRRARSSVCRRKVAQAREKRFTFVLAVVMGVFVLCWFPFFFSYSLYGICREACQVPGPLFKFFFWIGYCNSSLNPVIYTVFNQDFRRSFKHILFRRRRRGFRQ

[5] = DRUGMATRIX: Atrial Natriuretic Factor (ANF) radioligand binding (ligand: [125I] ANF (rat)); format: cell membranes, Cavia porcellus, Dunkin-Hartley, Adrenal gland, Membrane; settings: Not Active = under 50% inhibition at 10 µM
[6] = biological target: T2, Cysteinyl leukotriene receptor 1 (Homo sapiens, UniProt Q9Y271); format: cell membranes, CHO-K1, Membrane; settings: cho-k1; note: in other assays of this panel Not Active means under 50% inhibition at 10 µM
T2 sequence (Q9Y271 whole entry): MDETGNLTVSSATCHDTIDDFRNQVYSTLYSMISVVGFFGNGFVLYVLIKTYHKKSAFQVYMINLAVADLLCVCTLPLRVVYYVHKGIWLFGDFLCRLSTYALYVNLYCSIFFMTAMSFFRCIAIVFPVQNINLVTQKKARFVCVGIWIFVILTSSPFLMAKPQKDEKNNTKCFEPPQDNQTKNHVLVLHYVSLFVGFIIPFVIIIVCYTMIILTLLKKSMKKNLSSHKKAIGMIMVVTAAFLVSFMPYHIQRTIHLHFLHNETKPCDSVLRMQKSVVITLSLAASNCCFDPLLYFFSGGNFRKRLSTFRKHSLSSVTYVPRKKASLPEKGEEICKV

[7] = biological target: T3, C-X-C chemokine receptor type 1 (Homo sapiens, UniProt P25024); note: in other assays of this panel Not Active means under 50% inhibition at 10 µM
T3 sequence (P25024 whole entry): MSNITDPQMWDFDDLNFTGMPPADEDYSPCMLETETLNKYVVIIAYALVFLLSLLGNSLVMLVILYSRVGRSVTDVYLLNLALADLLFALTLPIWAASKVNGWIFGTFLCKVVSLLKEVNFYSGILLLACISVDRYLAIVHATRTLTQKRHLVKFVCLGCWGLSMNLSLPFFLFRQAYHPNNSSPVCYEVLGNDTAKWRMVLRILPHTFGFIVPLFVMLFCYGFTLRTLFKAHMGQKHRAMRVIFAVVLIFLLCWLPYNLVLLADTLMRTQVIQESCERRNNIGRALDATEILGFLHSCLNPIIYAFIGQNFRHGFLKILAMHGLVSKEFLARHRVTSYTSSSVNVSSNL

Estrogen receptor beta = Estrogen receptor beta (Homo sapiens, UniProt Q92731); settings: sf9; note: in other assays of this panel Not Active means under 50% inhibition at 10 µM
Chain of Estrogen receptor beta (Q92731 whole entry): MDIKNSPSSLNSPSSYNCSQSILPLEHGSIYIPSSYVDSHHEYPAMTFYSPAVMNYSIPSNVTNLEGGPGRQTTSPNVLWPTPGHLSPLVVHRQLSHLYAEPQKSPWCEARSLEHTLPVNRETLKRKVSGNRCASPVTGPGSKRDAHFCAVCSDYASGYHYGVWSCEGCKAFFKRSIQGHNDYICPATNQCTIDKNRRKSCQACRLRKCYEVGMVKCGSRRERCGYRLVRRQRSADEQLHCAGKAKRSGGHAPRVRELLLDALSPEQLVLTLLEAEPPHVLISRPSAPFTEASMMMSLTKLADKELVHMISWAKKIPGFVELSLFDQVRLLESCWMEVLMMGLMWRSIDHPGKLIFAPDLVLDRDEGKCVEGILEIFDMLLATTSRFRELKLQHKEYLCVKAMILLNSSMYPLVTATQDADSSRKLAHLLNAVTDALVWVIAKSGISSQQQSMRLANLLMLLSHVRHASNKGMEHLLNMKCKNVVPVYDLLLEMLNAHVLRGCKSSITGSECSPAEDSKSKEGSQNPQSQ

[8] = DRUGMATRIX: Potassium Channel [KATP] radioligand binding (ligand: [3H] Glyburide); format: cell membranes, Membrane; settings: hit-t15; Not Active = under 50% inhibition at 10 µM
Caspase-1 = biological target: T4, Caspase-1 (Homo sapiens, UniProt P29466); design: species or system Escherichia coli
T4 sequence (P29466 whole entry): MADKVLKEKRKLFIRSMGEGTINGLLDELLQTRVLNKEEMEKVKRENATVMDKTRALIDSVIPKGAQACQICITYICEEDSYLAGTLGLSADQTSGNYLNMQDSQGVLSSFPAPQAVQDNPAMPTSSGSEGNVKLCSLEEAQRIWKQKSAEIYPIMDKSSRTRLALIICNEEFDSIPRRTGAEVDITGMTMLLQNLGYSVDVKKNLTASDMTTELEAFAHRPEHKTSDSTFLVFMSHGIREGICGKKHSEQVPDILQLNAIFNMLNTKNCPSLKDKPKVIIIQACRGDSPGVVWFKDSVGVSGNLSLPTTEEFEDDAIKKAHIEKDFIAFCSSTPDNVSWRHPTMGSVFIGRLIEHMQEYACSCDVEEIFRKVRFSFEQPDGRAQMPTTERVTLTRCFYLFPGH

[9] = DRUGMATRIX: Leukotriene, BLT (LTB4) radioligand binding (ligand: [3H]LTB4); format: cell membranes, Membrane; settings: u-937; Not Active = under 50% inhibition at 10 µM
[10] = DRUGMATRIX: Phosphodiesterase PDE3 enzyme inhibition (substrate: [3H]cAMP + cAMP); format: tissue-based, Homo sapiens; settings: platelet, Not Active = under 50% inhibition at 10 µM
Adenosine receptor A2a = Adenosine receptor A2a (Homo sapiens, UniProt P29274); assay: DRUGMATRIX: Adenosine A2A radioligand binding (ligand: […]); format: cell membranes, HEK293, Membrane; settings: Not Active = under 50% inhibition at 10 µM
Chain of Adenosine receptor A2a (P29274 whole entry): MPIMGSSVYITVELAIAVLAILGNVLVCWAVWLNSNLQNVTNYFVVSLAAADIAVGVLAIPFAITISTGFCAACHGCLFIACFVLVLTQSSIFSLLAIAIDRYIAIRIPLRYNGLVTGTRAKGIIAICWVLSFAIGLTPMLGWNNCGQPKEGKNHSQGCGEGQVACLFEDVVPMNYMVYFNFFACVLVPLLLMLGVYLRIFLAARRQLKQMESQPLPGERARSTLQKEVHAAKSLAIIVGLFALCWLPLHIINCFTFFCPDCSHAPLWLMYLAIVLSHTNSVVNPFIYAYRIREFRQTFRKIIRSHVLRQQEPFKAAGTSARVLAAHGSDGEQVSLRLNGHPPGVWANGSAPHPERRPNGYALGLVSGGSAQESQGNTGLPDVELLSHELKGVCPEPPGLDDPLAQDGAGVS

Chain of 5-hydroxytryptamine receptor 4 (O70528 whole entry): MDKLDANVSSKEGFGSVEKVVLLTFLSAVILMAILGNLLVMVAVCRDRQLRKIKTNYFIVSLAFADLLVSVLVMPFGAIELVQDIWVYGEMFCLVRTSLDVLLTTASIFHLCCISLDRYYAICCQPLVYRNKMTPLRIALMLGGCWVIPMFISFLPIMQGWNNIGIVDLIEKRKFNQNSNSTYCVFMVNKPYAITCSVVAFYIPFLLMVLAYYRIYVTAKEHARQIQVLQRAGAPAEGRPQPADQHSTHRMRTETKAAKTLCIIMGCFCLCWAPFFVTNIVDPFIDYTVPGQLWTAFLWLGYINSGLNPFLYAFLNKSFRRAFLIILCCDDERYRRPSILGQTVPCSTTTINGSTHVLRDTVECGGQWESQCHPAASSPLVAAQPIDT

Structure (SMILES)	IC50 [1]	IC50 (Nitric oxide synthase 1)	IC50 [2]	IC50 [5]	Ki [5]	IC50 [6]	IC50 [7]	IC50 (Estrogen receptor beta)	IC50 [8]	Ki [8]	IC50 (Caspase-1)	IC50 [9]	Ki [9]	IC50 ([3]; insect cells)	IC50 ([4]; sf9)	IC50 [10]	Ki [10]	IC50 (Adenosine receptor A2a; hek293)	also measured
Oc1c(Cl)cc(Cl)cc1Sc1cc(Cl)cc(Cl)c1O [BITHIONOL]	Not Active	Not Active	Not Active	Not Active	Not Active	Not Active	Not Active	Not Active	Not Active	Not Active	Not Active	Not Active	Not Active						IC50 ([3]; read-out: IC50): 2260 nM; IC50 ([4]; read-out: IC50): 4390 nM; Ki ([4]; read-out: Ki): 638 nM; IC50 ([10]; read-out: IC50): 2720 nM; IC50 (Adenosine receptor A2a; read-out: IC50): 1170 nM; Ki (Adenosine receptor A2a; read-out: Ki): 655 nM
Brc1ccccc1 [BROMOBENZENE]	Not Active	Not Active	Not Active	Not Active	Not Active	Not Active	Not Active	Not Active	Not Active	Not Active	Not Active	Not Active	Not Active	Not Active	Not Active	Not Active	Not Active	Not Active	
CCCCOC(=O)c1ccc(N)cc1 [BUTAMBEN]	Not Active	Not Active	Not Active	Not Active	Not Active	Not Active	Not Active	Not Active	Not Active	Not Active	Not Active	Not Active	Not Active	Not Active	Not Active	Not Active	Not Active	Not Active	
CC[C@@]1(O)C(=O)OCc2c1cc1n(c2=O)Cc2cc3ccccc3nc2-1 [CAMPTOTHECIN]	Not Active	Not Active	Not Active	Not Active	Not Active	Not Active	Not Active	Not Active	Not Active	Not Active	Not Active	Not Active	Not Active	Not Active	Not Active	Not Active	Not Active	Not Active	
COCc1c(C(C)C)nc(C(C)C)c(/C=C/[C@@H](O)C[C@@H](O)CC(=O)O)c1-c1ccc(F)cc1 [CERIVASTATIN]	Not Active	Not Active	Not Active	Not Active	Not Active	Not Active	Not Active	Not Active	Not Active	Not Active	Not Active	Not Active	Not Active	Not Active	Not Active	Not Active	Not Active	Not Active	
CC(=O)O[C@]1(C(C)=O)CC[C@H]2[C@@H]3C=C(Cl)C4=CC(=O)CC[C@]4(C)[C@H]3CC[C@@]21C [CHLORMADINONE ACETATE]	Not Active	Not Active	Not Active	Not Active	Not Active	Not Active	Not Active	Not Active	Not Active	Not Active	Not Active	Not Active	Not Active	Not Active	Not Active	Not Active	Not Active	Not Active	
O=C1CCc2cc(OCCCCc3nnnn3C3CCCCC3)ccc2N1 [CILOSTAZOL]	Not Active	Not Active	Not Active	Not Active	Not Active	Not Active	Not Active	Not Active	Not Active	Not Active	Not Active	Not Active	Not Active	Not Active	Not Active			Not Active	IC50 ([10]; read-out: IC50): 271 nM
O=C(O)c1cn(C2CC2)c2cc(N3CCNCC3)c(F)cc2c1=O [CIPROFLOXACIN]	Not Active	Not Active	Not Active	Not Active	Not Active	Not Active	Not Active	Not Active	Not Active	Not Active	Not Active	Not Active	Not Active	Not Active	Not Active	Not Active	Not Active	Not Active	
CN(C)CCCC1(c2ccc(F)cc2)OCc2cc(C#N)ccc21 (configuration not stated) [CITALOPRAM]	Not Active	Not Active	Not Active	Not Active	Not Active	Not Active	Not Active	Not Active	Not Active	Not Active	Not Active	Not Active	Not Active	Not Active	Not Active	Not Active	Not Active	Not Active	
